Test results from patent publication US9572786B2, “Use of capsiate or dihydrocapsidate” (Catholic University Industry Academy Cooperation Foundation, priority 2007, dated 2017).

Assays:
Type in all cases: cell-based, human
[1] = system: HaCaT cells; experiment: UV-induced intracellular ROS production (DCFH-DA fluorescence microscopy); settings: 50 μM, UV 100 J/m^2, vs UV only control group
Description: 5×10^5 HaCaT cells (acquired from Professor N. Fusenig of the German Cancer Research Center), which are a human keratinocyte cell line, were placed on a 60 mm Petri dish (1×10^6 cells for a 100 mm Petri dish) and cultured for 24 hours in Dulbecco's modified Eagle's medium (DMEM) containing 10% fetal bovine serum (FBS).
After treating with 50 μM capsiate for 30 minutes, the cells were washed 3 times with phosphate buffered saline (PBS). In order to induce the production of ROS, UV was irradiated at an intensity of 100 J/m^2, using a UV lamp (FSX 24 T12/UVB/HO, Pansol™ USA). Immediately after the UV irradiation, the cells were washed again with PBS and further cultured for 2 hours in DMEM containing 1% FBS, which was treated with capsiate at the same concentration as in the pre-treatment. After treating with 25 μM 2,7-dichlorofliuorescin diacetate (DCFH-DA) in Hank's balanced salt solution (HBSS, BioWhittaker Cambrex, USA) for 30 minutes, the cells were washed 3 times with PBS.
The treated cells were observed under a fluorescence microscope (Carl Zeiss, USA) in order to measure the ROS produced by the UV irradiation. […]
Inhibition effect on the production of intracellular ROS induced by UV was measured in the same manner as Example 1-1, except for using dihydrocapsiate instead of capsiate.

[2] = system: COX-2; experiment: UV-induced COX-2 expression, Western blotting; settings: HaCaT cells; 10, 25, 50 μM; UV 100 J/m^2; 16 hours
Description: In order to investigate the effect of capsiate on UV-induced COX-2 expression in human keratinocytes, 5×10^5 HaCaT cells were placed on a 60 mm Petri dish and cultured for 24 hours in DMEM containing 10% FBS.
Subsequently, the cells were cultured for 24 hours in DMEM containing 1% FBS until starvation. Then, after treating with capsiate for 30 minutes at different concentrations (10 μM, 25 μM, 50 μM), followed by washing 3 times with PBS, UV was irradiated at an intensity of 100 J/m^2 in order to induce the expression of COX-2. Immediately after the UV irradiation, the cells were washed again with PBS and further cultured for 16 hours in DMEM containing 1% FBS, which was treated with capsiate at the same concentration as in the pre-treatment.
Western blotting was carried out as follows in order to evaluate the degree of COX-2 expression in the cells. […]
In order to investigate the effect of dihydrocapsiate on UV-induced COX-2 expression in human keratinocytes, the degree of COX-2 expression was evaluated in the same manner as Example 2-1, except for using dihydrocapsiate instead of capsiate.

[3] = system: HUVEC; experiment: VEGF-induced proliferation of endothelial cells, 3H-thymidine incorporation assay; settings: 25 μM; 10 ng/mL VEGF
Description: The inhibition effect of capsiate or dihydrocapsiate on the proliferation of EC induced by VEGF was investigated by ^3H-thymidine incorporation assay according to a method published in the literature [Lee O H et al., 1999, Biochem. Biophys. Res. Commun., 264: 743-750].
In brief, HUVEC were placed on a gelatin-coated 24-well plate at a concentration of 2×10^4 cells/well. After culturing for 24 hours, followed by washing twice with M199 medium (Invitrogen, USA), the cells were cultured for 6 hours in M199 medium containing 1% FBS. After addition of 25 μM capsiate or dihydrocapsiate, followed by pre-culturing for 30 minutes, 10 ng/mL VEGF was added and the cells were cultured for 30 hours. Then, 0.5 μCi/mL ^3H-thymidine was added and the cells were cultured for 6 hours.
DNA was precipitated from the cultured cells in 10% trichloroacetic acid at 4° C. for 30 minutes and washed twice with water. The DNA was dissolved in 0.2 N NaOH/0.1% SDS and measured using a liquid scintillation counter.

[4] = system: VE-cadherin; experiment: VE-cadherin expression in the intercellular junction, immunofluorescence; settings: HUVEC; 5, 10, 25 μM pre-treatment; VEGF 50 ng/mL for 1 hour
Description: In order to identify if the change of permeability of endothelial cells is related with VE-cadherin, the level of VE-cadherin expression in the intercellular junction was investigated.
HUVEC were placed on a gelatin-coated cover slip at a concentration of 12×10^5 cells/well and cultured for 24 hours. After washing twice with M199 medium, the cells were cultured in M199 medium containing 1% for 6 hours. After treating with capsiate or dihydrocapsiate at different concentrations (5 μM, 10 μM, 25 μM) for 30 minutes, the cells were treated with VEGF (50 ng/mL) for 1 hour. The cells were fixed and made permeable by treating with 2% formaldehyde for 10 minutes, and washed 3 times with PBS. Subsequently, the cells were treated with 0.1% Triton X-100 and 2% bovine serum albumin (BSA)/PBS blocking solution for 30 minutes. After labeling with VE-cadherin at room temperature for 2 hours, followed by washing with PBS, the cells were labeled again with FITC-conjugated secondary antibody at room temperature for 1 hour and 30 minutes. The cover slip was mounted on SloFade (Molecular Probes) and observed under a fluorescence microscope (Carl Zeiss).

[5] = system: VE-cadherin; experiment: Tyrosine phosphorylation of VE-cadherin, Western blotting; settings: HUVEC; 5, 10, 25 μM; 50 ng/mL VEGF
Description: Because VEGF is known to induce tyrosine phosphorylation of VE-cadherin and thereby regulate permeability between endothelial cells by making the intercellular contact loose [Esser S. et al., 1998, J. Cell Sci., 111: 1853-1865], the inhibition effect on tyrosine phosphorylation of VE-cadherin was investigated.
3.5×10^5 HUVEC were placed on a 60 mm plate and cultured for 24 hours. After washing twice with M199 medium (Invitrogen, USA), the cells were cultured in M199 medium containing 1% FBS for 6 hours. After treating with capsiate or dihydrocapsiate at different concentrations (5 μM, 10 μM, 25 μM) for 30 minutes, followed by pre-culturing for 30 minutes, the cells were cultured for 6 hours after adding 50 ng/mL VEGF. Proteins were collected from the cells and, after quantitation, subjected to Western blotting using VE-cadherin antibody in order to identify the level of protein expression.

Question: Which “production of intracellular ROS induced by UV” value [1] does the source give for `COc1cc(COC(=O)CCCC/C=C/C(C)C)ccc1O` [capsiate] here?
Answer: decreased remarkably

Question: What about the “UV-induced COX-2 expression” value [2] of the same molecule?
Answer: decreased in a concentration-dependent manner

Question: And the “VEGF-increased DNA synthesis in HUVEC (3H-thymidine incorporation)” value [3]?
Answer: inhibited the DNA synthesis

Question: What about the “cell adhesion ability of VE-cadherin in the intercellular junction” value [4] of the same molecule?
Answer: recovered

Question: And the “VEGF-induced phosphorylation of VE-cadherin” value [5]?
Answer: decreased in a concentration-dependent manner

Question: `COc1cc(COC(=O)CCCCCCC(C)C)ccc1O` [dihydrocapsiate] was tested. Which “production of intracellular ROS induced by UV” value [1] did it give?
Answer: decreased remarkably

Question: And the “UV-induced COX-2 expression” value [2]?
Answer: decrease of the increased COX-2 expression in a concentration-dependent manner

Question: And the “VEGF-increased DNA synthesis in HUVEC (3H-thymidine incorporation)” value [3]?
Answer: inhibited the DNA synthesis

Question: What about the “cell adhesion ability of VE-cadherin in the intercellular junction” value [4] of the same molecule?
Answer: recovered

Question: And the “VEGF-induced phosphorylation of VE-cadherin” value [5]?
Answer: decreased in a concentration-dependent manner
